Measurements taken from patent US20030083338A1, “Compositions and methods for management of serotonin-mediated disorders” (priority 2001, published 2003).

Assays:
[1] = target: T1, CYP1A2 (Homo sapiens, UniProt P05177); experiment: CYP450 inhibition, CYP1A2; type: in vitro ADME; details: parameter and unit inferred
T1 sequence (P05177 1-516): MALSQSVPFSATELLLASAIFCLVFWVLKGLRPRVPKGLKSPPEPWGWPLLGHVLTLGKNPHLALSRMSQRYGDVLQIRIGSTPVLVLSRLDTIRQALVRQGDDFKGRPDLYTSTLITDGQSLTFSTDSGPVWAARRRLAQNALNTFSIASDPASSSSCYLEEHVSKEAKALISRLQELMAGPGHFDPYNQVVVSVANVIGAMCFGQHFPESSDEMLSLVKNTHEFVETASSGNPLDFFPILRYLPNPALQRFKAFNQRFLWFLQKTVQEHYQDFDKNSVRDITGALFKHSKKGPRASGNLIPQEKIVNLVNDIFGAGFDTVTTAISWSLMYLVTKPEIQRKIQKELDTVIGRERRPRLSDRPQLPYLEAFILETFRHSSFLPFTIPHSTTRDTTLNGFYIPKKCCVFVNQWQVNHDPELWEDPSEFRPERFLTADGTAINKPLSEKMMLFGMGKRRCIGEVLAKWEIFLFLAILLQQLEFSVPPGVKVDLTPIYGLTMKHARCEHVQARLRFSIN

[2] = target: CYP3A4 (Homo sapiens, UniProt P08684); experiment: CYP450 inhibition, CYP3A4 BZRes; type: in vitro ADME; details: parameter and unit inferred
[3] = target: α1 Receptor; experiment: α1 receptor binding; details: read-out: α1 Receptor Binding IC50, Alpha1
[4] = test system: serotonin uptake; experiment: Serotonin uptake functional assay (rat cortex synaptosomes); type: biochemical; details: for IC50: rat cortex synaptosomes, read-out: Monoamine Neuronal Transport IC50, 5-HT Uptake
Experimental: Characterization of serotonin uptake is performed using synaptosomes isolated in a 0.32 M sucrose buffer from a male Wistar rat cortex. The uptake of radiolabelled serotonin by synaptosomes (100 μg of proteins/point) is allowed by incubating them for 15 minutes at 37° C. in presence of test compounds and [3H]5-hydroxytryptamin (0.1 μCi/point). The experiment is performed in a deep well.
Synaptosomes and [3H]5-hydroxytryptamin are prepared in a Krebs buffer pH 7.4 containing 25 mM NaHCO3, 11 mM glucose and 50 μM ascorbic acid. This incubation buffer is oxygenated during 5 minutes before incubation. Basal control is incubated for 15 minutes at 4° C. in order to avoid any uptake. Following this incubation the uptake is stopped by filtration through an “unifilter 96-wells GFB” Packard plate washed with Krebs buffer containing 25 mM NaHCO3 in order to eliminate the free [3H]5-hydroxytrptamin. The radioactivity associated to the synaptosomes retained onto the unifilter corresponding to the uptake is then measured with a microplate scintillation counter Topcount, Packard using a scintillation liquid microscint 0, Packard.
[See Perovics and Müller “Pharmacological profile of hypericum extract: effect on serotonin uptake by postsynaptic receptors”, Arzeim.

[5] = test system: norepinephrine uptake; experiment: Norepinephrine uptake functional assay (rat hypothalamus synaptosomes); type: biochemical; details: read-out: Monoamine Neuronal Transport IC50, NE uptake
Experimental: Characterization of norepinephrine uptake is performed using synaptosomes isolated at Cerep in a 0.32 M sucrose buffer from a male Wistar rat hypothalamus. The uptake of radiolabeled norepinephrine by synaptosomes (100 μg of proteins/point) is allowed by incubating them for 20 minutes at 37° C. in presence of test compounds and [3H]-norepinephrine (0.1 μCi/point). The experiment is performed in a deep well.
Synaptosomes and [3H]-norepinephrine are prepared in a Krebs buffer pH 7.4 containing 25 mM NaHCO3, 11 mM glucose and 50 μM ascorbic acid. This incubation buffer is oxygenated during 5 minutes before incubation. Basal control is incubated for 20 minutes at 4° C. in order to avoid any uptake. Following this incubation the uptake is stopped by filtration through an “unifilter 96-wells GFB” Packard plate washed with Krebs buffer containing 25 mM NaHCO3 in order to eliminate the free [3H]-norepinephrine. The radioactivity associated to the synaptosomes retained onto the unifilter corresponding to the uptake is then measured with a microplate scintillation counter Topcount, Packard using a scintillation liquid microscint 0, Packard.
[See Perovics and Müller, op.cit. (1995).]

[6] = target: T2, Human D2 Receptor (Homo sapiens, UniProt P14416); experiment: Human D2 receptor binding ([3H]spiperone); details: comment on Table 1
T2 construct: expressed in transfected cells; host or cells: A9L cells
Experimental: (§1) Dopamine and serotonin receptor binding assays were performed in a standard manner with the incubation of membrane preparations in an assay buffer in the presence of a known radioactively labeled specific ligand for the receptor subtypes. Nonspecific binding was determined by assessing binding in the presence of excess ligand. Specific binding was measured as the total labeled ligand bound after the nonspecific binding was subtracted. The effect of the tested agents was measured by determining the competition for the receptor binding across a concentration range. Subsequently, an IC50 was determined for the agents tested. More specific details are provided below for several of the assays performed.
Aliquots of transfected A9L cell membrane preparations corresponding to 20-40 μg protein are incubated for 60 min at 22° C. in 250 μL of 50 mM Tris-HCl buffer (pH 7.4) containing 120 mM NaCl, 5 mM KCl, 5 mM MgCl2, 1 mM EDTA, 0.3 nM [^3H]spiperone and increasing concentrations of the competing drugs. Nonspecific binding is determined in the presence of 10 μM (+)butaclamol. […] Bound radioactivity is measured with a scintillation counter (Topcount, Packard) using a liquid-scintillation cocktail (Microscint 0, Packard). […]

[7] = target: T3, Human 5-HT2A Receptor (Homo sapiens, UniProt P28223); experiment: Human 5-HT2A receptor binding ([3H]ketanserin); details: comment on Table 2
T3 construct: expressed in transfected cells; host or cells: CHO cells
Experimental: as §1
Nonspecific binding is determined in the presence of 1 μM ketanserin. […] Bound radioactivity is measured with a scintillation counter (Topcount, Packard) using a liquid scintillation cocktail (Microscint 0, Packard). The reference compound for this assay is ketanserin.

[8] = target: CYP2C19 (Homo sapiens, UniProt P33261); experiment: CYP450 inhibition, CYP2C19; type: in vitro ADME; details: parameter and unit inferred
[9] = immediate-release tablets; first-pass metabolism; cited from earlier work

T3 sequence (P28223 whole entry): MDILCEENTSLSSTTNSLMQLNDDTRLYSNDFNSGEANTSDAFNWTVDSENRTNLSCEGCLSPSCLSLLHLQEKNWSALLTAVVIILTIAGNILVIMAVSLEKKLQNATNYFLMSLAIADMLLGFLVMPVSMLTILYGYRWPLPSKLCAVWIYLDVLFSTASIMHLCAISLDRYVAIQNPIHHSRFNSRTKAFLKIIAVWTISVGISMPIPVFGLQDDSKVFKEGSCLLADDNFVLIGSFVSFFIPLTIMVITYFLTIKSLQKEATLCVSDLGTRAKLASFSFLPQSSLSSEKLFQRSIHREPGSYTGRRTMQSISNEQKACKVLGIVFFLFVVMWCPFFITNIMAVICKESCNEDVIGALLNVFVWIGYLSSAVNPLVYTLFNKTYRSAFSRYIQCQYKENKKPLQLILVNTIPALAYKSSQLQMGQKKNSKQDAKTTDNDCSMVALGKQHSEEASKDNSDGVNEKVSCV
Sequence of CYP3A4 (P08684 whole entry): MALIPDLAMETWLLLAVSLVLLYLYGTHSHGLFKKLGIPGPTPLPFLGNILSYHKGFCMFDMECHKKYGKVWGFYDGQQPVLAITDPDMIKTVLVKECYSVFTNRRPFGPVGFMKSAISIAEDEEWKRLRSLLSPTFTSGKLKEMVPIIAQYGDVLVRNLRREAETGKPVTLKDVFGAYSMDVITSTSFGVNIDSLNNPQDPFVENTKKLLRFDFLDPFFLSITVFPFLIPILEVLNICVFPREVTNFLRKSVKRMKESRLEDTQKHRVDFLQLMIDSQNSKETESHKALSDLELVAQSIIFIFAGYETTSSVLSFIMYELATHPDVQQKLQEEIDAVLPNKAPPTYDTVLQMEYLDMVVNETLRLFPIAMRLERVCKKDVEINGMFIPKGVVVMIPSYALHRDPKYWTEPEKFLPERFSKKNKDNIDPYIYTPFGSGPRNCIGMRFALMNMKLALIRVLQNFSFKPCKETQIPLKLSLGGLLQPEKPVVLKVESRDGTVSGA
Sequence of CYP2C19 (P33261 whole entry): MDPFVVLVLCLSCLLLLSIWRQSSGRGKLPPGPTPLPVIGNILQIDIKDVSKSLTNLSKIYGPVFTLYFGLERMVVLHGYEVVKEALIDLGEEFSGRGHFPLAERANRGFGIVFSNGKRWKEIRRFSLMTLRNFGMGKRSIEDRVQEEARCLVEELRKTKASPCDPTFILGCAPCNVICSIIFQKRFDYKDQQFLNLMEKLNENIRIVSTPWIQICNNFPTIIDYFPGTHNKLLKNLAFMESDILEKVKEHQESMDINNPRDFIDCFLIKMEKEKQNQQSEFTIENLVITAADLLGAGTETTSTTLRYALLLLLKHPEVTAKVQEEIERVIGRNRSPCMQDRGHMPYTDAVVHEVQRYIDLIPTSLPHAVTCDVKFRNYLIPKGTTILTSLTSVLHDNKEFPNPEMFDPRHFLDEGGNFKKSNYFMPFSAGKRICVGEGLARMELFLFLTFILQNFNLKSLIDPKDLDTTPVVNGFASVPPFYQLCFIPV
T2 sequence (P14416 whole entry): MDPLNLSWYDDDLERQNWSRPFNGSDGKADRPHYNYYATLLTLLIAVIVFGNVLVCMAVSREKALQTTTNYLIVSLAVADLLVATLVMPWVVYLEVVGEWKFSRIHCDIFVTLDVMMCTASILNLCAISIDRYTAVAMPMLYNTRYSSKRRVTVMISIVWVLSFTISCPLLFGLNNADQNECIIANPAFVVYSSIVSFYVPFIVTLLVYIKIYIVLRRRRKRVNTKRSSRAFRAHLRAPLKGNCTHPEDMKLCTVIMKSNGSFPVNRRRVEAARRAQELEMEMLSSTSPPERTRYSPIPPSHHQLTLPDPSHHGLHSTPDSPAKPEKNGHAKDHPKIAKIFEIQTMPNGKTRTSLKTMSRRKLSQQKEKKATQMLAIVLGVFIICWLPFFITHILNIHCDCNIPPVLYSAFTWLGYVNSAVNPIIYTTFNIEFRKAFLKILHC

SMILES	IC50 [1] [nM]	IC50 [2] [nM]	IC50 [3] [nM]	IC50 [4] [nM]	IC50 [5] [nM]	Affinity for the D2 receptor (in words) [6]	Affinity for 5HT2A receptors (in words) [7]	IC50 [8] [nM]	Activity in inhibiting serotonin uptake (in words) ([4]; comment on Table 4)	Bioavailability [9]
C[C@@H](O)c1nn(CCCN2CCN(c3cccc(Cl)c3)CC2)c(=O)n1CCOc1ccccc1 [(R)—OH, (R)-Hydroxynefazodone]	> 200000	> 200000	367	640	1200	–	–	–	–	–
C[C@H](O)c1nn(CCCN2CCN(c3cccc(Cl)c3)CC2)c(=O)n1CCOc1ccccc1 [(S)—OH]	> 200000	–	419	790	–	excellent affinity	highest affinity	> 200000	least active enantiomer	–
CC(O)c1nn(CCCN2CCN(c3cccc(Cl)c3)CC2)c(=O)n1CCOc1ccccc1 (racemic) [(RS)—OH, hydroxynefazodone]	–	–	381	500	1000	–	–	–	–	–
CCc1nn(CCCN2CCN(c3cccc(Cl)c3)CC2)c(=O)n1CCOc1ccccc1 [Nefazodone, 2-[3-[4-(3-chlorophenyl)-1-piperazinyl]-propyl-]5-ethyl-2,4-dihydro-4-(2-phenoxy-ethyl)-3H-1,2,4-triazol-3-one, reference compound]	> 200000	–	306	200	1200	–	–	–	–	approximately 20%
